# Experiments:
# Settings in all cases: human; call rule not given here
# Hepatotoxicity [1] = test: FDA HLAED, serum glutamic oxaloacetic transaminase (SGOT) increase
# Hepatotoxicity [2] = test: FDA HLAED, liver enzyme composite activity
# Hepatotoxicity [3] = test: FDA HLAED, gamma-glutamyl transferase (GGT) increase
# Hepatotoxicity [4] = test: FDA HLAED, serum glutamic pyruvic transaminase (SGPT) increase
# Hepatotoxicity [5] = test: FDA HLAED, lactate dehydrogenase (LDH) increase
# Hepatotoxicity [6] = test: FDA HLAED, alkaline phosphatase increase
# Wherever GGT Increase - Index Value is given: reference of the scale not given here.
# Wherever LDH Increase - Index Value is given: reference of the scale not given here.
SMILES,SGOT Increase - Activity Score (Hepatotoxicity [1]),SGOT Increase - Index Value (Hepatotoxicity [1]),SGOT Increase - Number of Reports (Hepatotoxicity [1]),Composite Activity - Active (Hepatotoxicity [2]),Composite Activity - Marginal (Hepatotoxicity [2]),Composite Activity - Score (Hepatotoxicity [2]),GGT Increase - Activity Score (Hepatotoxicity [3]),GGT Increase - Index Value (Hepatotoxicity [3]),GGT Increase - Number of Reports (Hepatotoxicity [3]),SGPT Increase - Activity Score (Hepatotoxicity [4]),SGPT Increase - Index Value (Hepatotoxicity [4]),SGPT Increase - Number of Reports (Hepatotoxicity [4]),LDH Increase - Activity Score (Hepatotoxicity [5]),LDH Increase - Index Value (Hepatotoxicity [5]),LDH Increase - Number of Reports (Hepatotoxicity [5]),Alkaline Phosphatase Increase - Activity Score (Hepatotoxicity [6]),Alkaline Phosphatase Increase - Index Value (Hepatotoxicity [6]),Alkaline Phosphatase Increase - Number of Reports (Hepatotoxicity [6])
O=C1NC(c2ccccc2)(c2ccccc2)C(=O)N1COP(=O)(O)O [FOSPHENYTOIN],Inactive,0,< 4,0,0,Inactive,Inactive,0,< 4,Inactive,0,< 4,Inactive,0,< 4,Inactive,0,< 4
NCC1(CC(=O)O)CCCCC1 [GABAPENTIN],Inactive,0.8,>= 4,0,0,Inactive,Inactive,0.7,>= 4,Inactive,0.8,>= 4,Inactive,0.4,< 4,Inactive,0.7,>= 4
Nc1nc(O)c2ncn(COC(CO)CO)c2n1 [GANCICLOVIR],Inactive,2.7,>= 4,1,0,Inactive,Inactive,0.8,< 4,Inactive,2.3,>= 4,Inactive,1.9,>= 4,Active,4.2,>= 4
Nc1ccn([C@@H]2O[C@H](CO)[C@@H](O)C2(F)F)c(=O)n1 [GEMCITABINE],Inactive,1.4,< 4,0,0,Inactive,Inactive,1.4,< 4,Inactive,1.4,< 4,Inactive,1.4,< 4,Inactive,4.3,< 4
Cc1ccc(C)c(OCCCC(C)(C)C(=O)O)c1 [GEMFIBROZIL],Inactive,0,< 4,0,0,Inactive,Inactive,0,< 4,Inactive,0,< 4,Inactive,0,< 4,Inactive,0,< 4
CCC1=C(C)CN(C(=O)NCCc2ccc(S(=O)(=O)NC(=O)N[C@H]3CC[C@H](C)CC3)cc2)C1=O [GLIMEPIRIDE],Inactive,1.2,< 4,0,0,Inactive,Inactive,1.2,< 4,Inactive,1.2,< 4,Inactive,0,< 4,Inactive,1.2,< 4
COc1ccc(Cl)cc1C(=O)NCCc1ccc(S(=O)(=O)NC(=O)NC2CCCCC2)cc1 [GLYBURIDE],Inactive,1.8,>= 4,0,1,Inactive,Inactive,0,< 4,Inactive,2.2,>= 4,Inactive,0.8,>= 4,Marginally Active,3.4,>= 4
CN1C2CCCC1CC(NC(=O)c1nn(C)c3ccccc13)C2 (configuration not stated) [GRANISETRON],Inactive,0.6,< 4,0,0,Inactive,Inactive,0.2,< 4,Inactive,0.6,< 4,Inactive,0.2,< 4,Inactive,1,>= 4
N=C(N)N/N=C/c1c(Cl)cccc1Cl [GUANABENZ],Inactive,0.9,< 4,0,0,Inactive,Inactive,0,< 4,Inactive,0.6,< 4,Inactive,0.3,< 4,Inactive,0,< 4

# — ChEMBL document CHEMBL1697781, “Assessment of the health effects of chemicals in humans: II. Construction of an adverse effects database for QSAR modeling” (Curr Drug Discov Technol, 2004)
